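Growth conditions: 96-well plates. Treatment: test compound, 48 hours, 5 concentrations. Analysis: linear interpolation between bracketing concentrations; unreached endpoints set to highest concentration. The concentration for 50% growth inhibition is given as GI50.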 Calls of active or inactive are those of the source. Cut-off read from the data, not from the text of the source: active = GI50 up to about 1.1 µM and inactive = higher.
Assays:
Test in all cases: NCI-60 cell line screen, 48 h
A498 = tested on: A498
DMS-114 = tested on: DMS-114
HCC 2998 = tested on: HCC 2998
MOLT-4 = tested on: MOLT-4
Malme-3M = tested on: Malme-3M
SK-MEL-2 = tested on: SK-MEL-2
SK-OV-3 = tested on: SK-OV-3
SN12C = tested on: SN12C
SNB-75 = tested on: SNB-75
SW-620 = tested on: SW-620
TK-10 = tested on: TK-10
UO-31 = tested on: UO-31
OVCAR-5 = tested on: OVCAR-5
RPMI-8226 = tested on: RPMI-8226
SF-539 = tested on: SF-539
Hs-578T = tested on: Hs-578T
MDA-N = tested on: MDA-N
NCI/ADR-RES = tested on: NCI/ADR-RES
T47D = tested on: T47D

Structure (SMILES) | GI50 (A498) | GI50 (DMS-114) | GI50 (HCC 2998) | GI50 (MOLT-4) | GI50 (Malme-3M) | GI50 (SK-MEL-2) | GI50 (SK-OV-3) | GI50 (SN12C) | GI50 (SNB-75) | GI50 (SW-620) | GI50 (TK-10) | GI50 (UO-31) | GI50 (OVCAR-5) | GI50 (RPMI-8226) | GI50 (SF-539) | GI50 (Hs-578T) | GI50 (MDA-N) | GI50 (NCI/ADR-RES) | GI50 (T47D)
CCOC(=O)NC(=O)c1cn(CCN2CCN(C(=O)CCCCCCCCCCNc3ncnc4c3ncn4C3OC(CO)C(O)C3O)CC2)c(=O)[nH]c1=O (stereo unspecified) | > 100 µM (inactive) | > 100 µM (inactive) | > 100 µM (inactive) | > 100 µM (inactive) | > 100 µM (inactive) | > 100 µM (inactive) | > 100 µM (inactive) | > 100 µM (inactive) | > 100 µM (inactive) | > 100 µM (inactive) | > 100 µM (inactive) | > 100 µM (inactive) |  |  |  |  |  |  | 
COc1ccc([C@@H]2CC(=O)N2)cc1 | > 100 µM (inactive) | > 100 µM (inactive) |  | > 100 µM (inactive) | > 100 µM (inactive) | > 100 µM (inactive) | > 100 µM (inactive) | > 100 µM (inactive) | > 100 µM (inactive) |  | > 100 µM (inactive) | > 100 µM (inactive) | > 100 µM (inactive) | > 100 µM (inactive) | > 100 µM (inactive) |  |  |  | 
c1ccc(/C(=N/Nc2ccccn2)c2cccnn2)cc1 | > 25.3 µM (inactive) |  | 5.37 µM (inactive) | 0.632 µM (active) | 5.4 µM (inactive) | 12.7 µM (inactive) | 2.58 µM (inactive) | 2.15 µM (inactive) | 2.78 µM (inactive) | 3.44 µM (inactive) | 98.6 µM (inactive) | 0.885 µM (active) | 7.73 µM (inactive) | 2.17 µM (inactive) | 2.74 µM (inactive) | 11.8 µM (inactive) | 7.57 µM (inactive) | 2.17 µM (inactive) | 9.16 µM (inactive)
CCN(CC)CCNC(=O)c1cccc2nc3ccccc3nc12 | 11.7 µM (inactive) | 7.85 µM (inactive) | 14.2 µM (inactive) | 4.91 µM (inactive) | 11.4 µM (inactive) | 13.3 µM (inactive) | > 49 µM (inactive) | 10.3 µM (inactive) | > 36.8 µM (inactive) | 5.48 µM (inactive) | 27.2 µM (inactive) | > 24.8 µM (inactive) | 15.8 µM (inactive) | 7.64 µM (inactive) | 8.45 µM (inactive) |  |  |  | 
COc1cc2oc3c(c(=O)c2c(O)c1/C=C/C(C)C)CCC(C)(C)Oc1cc(O)ccc1-3 | 19.1 µM (inactive) |  | 14.4 µM (inactive) | 13 µM (inactive) | 20 µM (inactive) | 16.6 µM (inactive) | 16.7 µM (inactive) | 13.6 µM (inactive) | 16 µM (inactive) | 21.4 µM (inactive) | 13.8 µM (inactive) | 13.1 µM (inactive) | 16.6 µM (inactive) | 20 µM (inactive) | 13.1 µM (inactive) | 10.4 µM (inactive) | 13 µM (inactive) | 15.4 µM (inactive) | 33.9 µM (inactive)
CC1=NN(C(=O)c2ccccc2O)C(=O)/C1=C/c1cccc([N+](=O)[O-])c1 | 0.164 µM (active) | 1.66 µM (inactive) | 36.1 µM (inactive) |  | 21.1 µM (inactive) | 3.1 µM (inactive) | 15.3 µM (inactive) | 3.01 µM (inactive) | 0.449 µM (active) | 3.44 µM (inactive) | 15.6 µM (inactive) | 0.596 µM (active) | 10.4 µM (inactive) | 13.3 µM (inactive) | 0.377 µM (active) |  | 0.608 µM (active) | 6.81 µM (inactive) | 17.3 µM (inactive)
CC[C@H](C)C(=O)O[C@H]1CCC=C2C=C[C@H](C)[C@H](CC[C@@H]3C[C@@H](O)CC(=O)O3)[C@H]21 [MEVASTATIN] | 5.43 µM (inactive) |  | 25.6 µM (inactive) | > 47.8 µM (inactive) | 34.1 µM (inactive) | 5.77 µM (inactive) | 44.3 µM (inactive) | > 78.9 µM (inactive) | 2.07 µM (inactive) | 24.7 µM (inactive) | 36.6 µM (inactive) | 9.06 µM (inactive) | 31.6 µM (inactive) | 20 µM (inactive) | 7.35 µM (inactive) | 3.42 µM (inactive) | > 100 µM (inactive) | 10.3 µM (inactive) | > 82.8 µM (inactive)
